From patent publication US20250107526A1, “METHOD OF IMPROVING PLANT GROWTH” (UPL CORPORATION LIMITED, priority 2022, published 2025)

Columns and labels:
Type in all cases: in vivo
[1] = system: maize seeds inoculated with Pythium ultimum; assay: Emergence and vigor of maize seeds inoculated with Pythium ultimum after cyazofamid seed treatment (growth chamber); settings: 160 g/l suspension concentrate, 20 days after sowing
Procedure: An inoculum of Pythium ultimum isolated from cotton was used to inoculate maize seeds. The infected maize grains were mixed with soil in a ratio of 10:90 v/v, respectively. The seeds were treated as depicted in the Table 1 below. The seeds used in treatments 1, 3 and 4 were inoculated with Pythium ultimum. The said seeds were cultivated in a growth chamber at a temperature of 22° C., for a 10 h dark/14 h light photoperiod. The seed arrangement was 10 seeds/plot (pot 10×10 cm); 3rep1/treatment. [table] The % emergence of seeds and the % vigor was observed 20 days after sowing of seeds.

wheat grains = assay: Plant growth improvement of wheat grains treated with cyazofamid, field trials
Source text: The present inventors have determined the plant growth improvement in wheat grains treated with cyazofamid in field trials. The treatments employed have been depicted in table 4 below. The results in terms of crop establishment in field, root weight, shoot weight and the total plant weight have been indicated in table 5 below: [table]

Corn seeds = assay: Emergence speed index (ESI) of treated seeds, corn; settings: suspension concentrate of 40% cyazofamid
Procedure: (§1) The seed emergence index was evaluated for seeds of different crops including corn, cotton and wheat treated with cyazofamid. The treatment protocol and the results are disclosed in the table below. […] A suspension concentrate of 40% cyazofamid was used in the treatment.

Cotton seeds = assay: Emergence speed index (ESI) of treated seeds, cotton; settings: suspension concentrate of 40% cyazofamid
Procedure: as §1

Wheat seeds = assay: Emergence speed index (ESI) of treated seeds, wheat; settings: suspension concentrate of 40% cyazofamid
Procedure: as §1

[2] = system: seeds of different crops including corn, cotton and wheat
Procedure: as §1

[3] = seed treatment 10 g/100/kg seeds
[4] = seed treatment 50 g/100/kg seeds
[5] = 10 g ai/100 kg (25 ml/100 kg seeds)
[6] = 20 g ai/100 kg (50 ml/100 kg seeds)
[7] = 30 g ai/100 kg (75 ml/100 kg seeds)
[8] = 50 g ai/100 kg (125 ml/100 kg seeds)
[9] = 100 g ai/100 kg (250 ml/100 kg seeds)

Cc1ccc(-c2c(Cl)nc(C#N)n2S(=O)(=O)N(C)C)cc1 [Cyazofamid, 4-chloro-2-cyano-N, N-dimethyl-5-p-tolylimidazole-1-sulfonamide]
% emergence (20 DAS) [1, 3]: 76.67% | % vigor (20 DAS) [1, 3]: 86.67% | % emergence (20 DAS) [1, 4]: 73.33% | % vigor (20 DAS) [1, 4]: 83.33% | Root weight (wheat grains; [5]): 3.1 g | Shoot weight (wheat grains; [5]): 5.9 g | Total plant weight (wheat grains; [5]): 9.0 g | Crop establishment plants/m row 25 DAA (wheat grains; [5]): 81.5 plants/m row | Crop establishment plants/m row 38 DAA (wheat grains; [5]): 74.5 plants/m row | Root weight (wheat grains; [6]): 3.1 g | Shoot weight (wheat grains; [6]): 5.3 g | Total plant weight (wheat grains; [6]): 8.4 g | Crop establishment plants/m row 25 DAA (wheat grains; [6]): 73.1 plants/m row | Crop establishment plants/m row 38 DAA (wheat grains; [6]): 79.4 plants/m row | Root weight (wheat grains; [7]): 3.8 g | Shoot weight (wheat grains; [7]): 5.4 g | Total plant weight (wheat grains; [7]): 9.2 g | Crop establishment plants/m row 25 DAA (wheat grains; [7]): 74.8 plants/m row | Crop establishment plants/m row 38 DAA (wheat grains; [7]): 80.8 plants/m row | Root weight (wheat grains; [8]): 3.0 g | Shoot weight (wheat grains; [8]): 5.0 g | Total plant weight (wheat grains; [8]): 8.1 g | Crop establishment plants/m row 25 DAA (wheat grains; [8]): 75.6 plants/m row | Crop establishment plants/m row 38 DAA (wheat grains; [8]): 82.5 plants/m row | Root weight (wheat grains; [9]): 2.9 g | Shoot weight (wheat grains; [9]): 5.2 g | Total plant weight (wheat grains; [9]): 8.1 g | Crop establishment plants/m row 25 DAA (wheat grains; [9]): 74.0 plants/m row | Crop establishment plants/m row 38 DAA (wheat grains; [9]): 79.9 plants/m row | crop establishment in field, root weight, shoot weight and total plant weight compared with untreated control (wheat grains; in words, treated wheat grains, 10-100 g ai/100 kg): higher | Emergence speed index (ESI) (Corn seeds; 10 g ai/100 kg): 32.7 | Emergence speed index (ESI) (Corn seeds; 50 g ai/100 kg): 32.9 | Emergence speed index (ESI) (Corn seeds; 100 g ai/100 kg): 32.6 | Emergence speed index (ESI) (Cotton seeds; 10 g ai/100 kg): 6.9 | Emergence speed index (ESI) (Cotton seeds; 50 g ai/100 kg): 6.3 | Emergence speed index (ESI) (Cotton seeds; 100 g ai/100 kg): 6.5 | Emergence speed index (ESI) (Wheat seeds; 10 g ai/100 kg): 22.7 | Emergence speed index (ESI) (Wheat seeds; 50 g ai/100 kg): 23.0 | Emergence speed index (ESI) (Wheat seeds; 100 g ai/100 kg): 22.5 | phytotoxicity in the emergent plants ([2]; in vivo): no phytotoxicity observed | emergence index of treated seeds compared with untreated seeds ([2]; in words, corn, cotton and wheat seeds, 10-100 g ai/100 kg): more efficient than untreated seeds
